Laboratory results published in patent US5225441A, “Treatment of periodontal disease” (Block Drug Company, Inc., priority 1987, dated 1993).

Columns and labels:
[1] = test system: periodontally supporting bone loss; details: beagle dog model; clinical index of periodontal disease progression; cited from earlier work
[2] = molecular target: periodontal cyclooxygenase; assay: Inhibition of cyclooxygenase products (14C arachidonic acid incorporation) in inflamed human gingival tissue homogenate; assay type: biochemical; details: for % Control: 2 hours at 37° C.
Experimental: Inflamed human gingival tissue was obtained from patients with periodontitis who were undergoing routine periodontal surgery. The tissues were immediately stored in liquid nitrogen prior to use or were used fresh. The assay of cyclooxygenase products was performed as a modification of the assay of El Attar et al., J. Periodon. Res., 21, 169-176 (1986). Pooled tissue was weighed and homogenized at 0°-4° C. with a polytron (Brinkman) homogenizer in a 0.2 M TRIS buffer, pH 8.0, at a final concentration of 20 mg/ml. After centrifugation for 10 minutes at 1200×g, the supernatant was divided into 3 ml aliquots for incubation in the presence or absence of a test compound. The test compounds were tested in triplicate over a log range of 10^-3 to 10^-9 M. The reaction was started by the addition of 0.2 uCi of ^14 C arachidonic acid and carried out for 2 hours at 37° C. The reaction was stopped by the addition of two volumes of ethanol and allowed to remain at room temperature for 30 minutes prior to centrifugation for 10 minutes in order to remove the precipitate. The prostaglandin was then extracted.
Prostanoids were extracted as described by Powell, Methods in Eng., 86, 467 (1982) using a Sep-Pak-C18 cartridge from Walters Associates. The Sep-Pak was prepared by the sequential elusion of 20 milliliters of ethanol and 20 milliliters of water. The sample was then adjusted to 15% ethanol, pH 3.0, with acetic acid and applied to the column. The column was eluted with 20 ml of 15% ethanol, pH 3.0, 20 ml of petroleum ether and then the prostaglandin and Tx (thromboxane) was eluded with 10 ml of methyl formate. Thereafter, the methyl formate was evaporated to dryness with nitrogen and reconstituted in 32% […] (high-pressure liquid chromatography buffer).
These are readily separated and quantified using a 4.6×100 mm RP-18 Spheri-5u column from Brownlee Labs. A Flow-One radioactivity monitor simultaneously measured radioactivity. The elution was monitored at 192 nanometers.
The net incorporation of the ^14 C arachidonate was measured in the absence of the test substance in order to determine the maximal activity of the cyclooxygenase cascade. The percent inhibition for the inhibitors tested was then determined at several concentrations in order to calculate the IC50.

CC(C)Cc1ccc(C(C)C(=O)O)cc1 (centres unmarked) [ibuprofen]
Inhibition of periodontally supporting bone loss [1]: effective
IC50 ([2]; calculated from percent inhibition at several concentrations): 15 µM
% Control ([2]; drug concentration 1 × 10^-4 M, 100 µM): 27.5%
% Control ([2]; drug concentration 1 × 10^-5 M, 10 µM): 55.6%
% Control ([2]; drug concentration 10^-6 M, 1 µM): 92.6%
